Measured values published in the supplement of paper PMC4862054.

Key:
Conditions in all cases: incubation time: 72 h
[1] = system: BT-474; experiment: normalised viability (% of control), CellTiter-Blue; higher = more viable cells (about 100 = DMSO control)
Method in brief: (§1)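 Compound dissolved in 5 µl medium was pre-loaded into 384-well plates, and breast cancer cell lines in 20 µl suspension were seeded on top and incubated 72 h. After adding 2.5 µl CellTiter-Blue reagent for 2 h at 37 °C, fluorescence was read at 560/590 nm. Plates were normalised to vehicle (100) and a positive kill control (0), with Z'-factor quality control. Each value is normalised viability at a single listed concentration from the series.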

[2] = system: BT-549; experiment: as above
Method in brief: as §1

[3] = system: CAL-51; experiment: as above
Method in brief: as §1

[4] = system: HCC1143; experiment: as above
Method in brief: as §1

[5] = system: HCC1599; experiment: as above
Method in brief: as §1

[6] = system: HCC1937; experiment: as above
Method in brief: as §1

[7] = system: Hs578T; experiment: as above
Method in brief: as §1

[8] = system: MDA-MB-436; experiment: as above
Method in brief: as §1

[9] = system: MFM-223; experiment: as above
Method in brief: as §1

[10] = system: BT-474; experiment: drug sensitivity score (DSS), CellTox Green (DSS (AUC-based score)); higher = stronger drug effect (viability inhibition or cytotoxicity); extreme values may be limits of the assay
Method in brief: (§2)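 The drug sensitivity score reflects the area under a fitted dose-response curve. To obtain it, breast cancer cells in 20 µl suspension were seeded into 384-well plates containing compound at 5 concentrations, 10-fold apart over a compound-specific 10,000-fold range, and incubated 72 h. CellTox Green fluorescence (485/520 nm) was read first and CellTiter-Glo luminescence second, after 10 min at room temperature. Each plate was normalised to 0.1 % DMSO and a positive kill control.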

[11] = system: BT-549; experiment: as above
Method in brief: as §2

[12] = system: CAL-120; experiment: as above
Method in brief: as §2

[13] = system: CAL-148; experiment: as above
Method in brief: as §2

[14] = system: CAL-51; experiment: as above
Method in brief: as §2

[15] = system: CAL-85-1; experiment: as above
Method in brief: as §2

[16] = system: DU-4475; experiment: as above
Method in brief: as §2

[17] = system: HCC1143; experiment: as above
Method in brief: as §2

[18] = system: HCC1599; experiment: as above
Method in brief: as §2

[19] = system: HCC1937; experiment: as above
Method in brief: as §2

[20] = system: HDQ-P1; experiment: as above
Method in brief: as §2

[21] = system: Hs578T; experiment: as above
Method in brief: as §2

[22] = system: MCF-10A; experiment: as above
Method in brief: as §2

[23] = system: MDA-MB-231; experiment: as above
Method in brief: as §2

[24] = system: MDA-MB-453; experiment: as above
Method in brief: as §2

[25] = system: MFM-223; experiment: as above
Method in brief: as §2

COc1ncc(-c2ccc3nccc(-c4ccnnc4)c3c2)cc1NS(=O)(=O)c1ccc(F)cc1F
normalised viability [%]
Conditions	[1]	[2]	[3]	[4]	[5]	[6]	[7]	[8]	[9]
0.3 nM	–	–	93.7	–	–	–	–	–	–
1 nM	110	88	–	72.4	88	94	107	105	99.9
3 nM	–	–	75.3	–	–	–	–	–	–
10 nM	–	–	56.5	–	–	–	–	–	–
100 nM	19.2	29.4	–	35.4	34.5	47.2	33.5	34.2	21.3
1000 nM	6.63	14.7	–	16.5	29.3	32.5	9.34	22.8	14.6

Conditions	drug sensitivity score
[10]	6.83
[11]	0
[12]	0
[13]	6.5
[14]	6.6
[15]	0
[16]	0
[17]	0
[18]	0
[19]	5.84
[20]	0
[21]	3.92
[22]	0.561
[23]	3.08
[24]	0
[25]	3.89

CS(=O)(=O)OCCCCOS(C)(=O)=O [Busulfan]
normalised viability [%]
Conditions	[1]	[2]	[3]	[4]	[5]	[6]	[7]	[8]	[9]
30 nM	–	–	103	–	–	–	–	–	–
100 nM	107	84	–	104	90.2	86.4	103	106	108
300 nM	–	–	95.4	–	–	–	–	–	–
1000 nM	–	–	94.6	–	–	–	–	–	–
10000 nM	114	92.4	–	108	75.4	83.1	101	95.2	95.7
100000 nM	108	68.2	–	108	109	43.7	85.7	82.9	99.1

Conditions	drug sensitivity score
[10]	0
[11]	0
[12]	0
[13]	0
[14]	0
[15]	0
[16]	0
[17]	0
[18]	0
[19]	0
[20]	2.69
[21]	0
[22]	0
[23]	0
[24]	0
[25]	0

CC(C)C[C@H](NC(=O)[C@H](Cc1ccccc1)NC(=O)c1cnccn1)B(O)O [Bortezomib]
normalised viability [%]
Conditions	[1]	[2]	[3]	[4]	[5]	[6]	[7]	[8]	[9]
0.3 nM	–	–	101	–	–	–	–	–	–
1 nM	101	99.8	–	81	130	83.4	91.1	101	104
3 nM	–	–	97.9	–	–	–	–	–	–
10 nM	–	–	97.7	–	–	–	–	–	–
100 nM	36.6	6.67	–	19.4	64.5	8.79	2.89	12.2	16.9
1000 nM	22.4	3.15	–	17.4	45.2	3.46	0.76	9.29	15.3

Conditions	drug sensitivity score
[10]	6.53
[11]	6.42
[12]	13.6
[13]	13.5
[14]	18.7
[15]	27.8
[16]	2.21
[17]	6.67
[18]	0
[19]	21.4
[20]	20.1
[21]	17.3
[22]	7.83
[23]	22.4
[24]	2.35
[25]	12.5

CCCC(CCC)C(=O)O [Valproic acid]
normalised viability [%]
Conditions	[1]	[2]	[3]	[4]	[5]	[6]	[7]	[8]	[9]
3 nM	–	–	104	–	–	–	–	–	–
10 nM	113	78.7	–	110	97.4	126	110	96.6	103
30 nM	–	–	95.1	–	–	–	–	–	–
100 nM	–	–	96.5	–	–	–	–	–	–
1000 nM	124	93.1	–	104	90.7	86	140	89	87.2
10000 nM	121	86.2	–	94.4	82	92.6	127	132	97.3

Conditions	drug sensitivity score
[10]	0
[11]	0
[12]	0
[13]	0
[14]	0
[15]	0
[16]	0
[17]	0
[18]	0
[19]	0
[20]	0
[21]	0
[22]	0
[23]	0
[24]	0
[25]	0

C#Cc1cccc(Nc2ncnc3cc(OC)c(OCCCCCCC(=O)NO)cc23)c1 [CUDC-101]
normalised viability [%]
Conditions	[1]	[2]	[3]	[4]	[5]	[6]	[7]	[8]	[9]
3 nM	–	–	117	–	–	–	–	–	–
10 nM	108	90.3	–	78.3	78.8	71.7	91.3	94.7	75.1
30 nM	–	–	108	–	–	–	–	–	–
100 nM	–	–	105	–	–	–	–	–	–
1000 nM	28.2	64.6	–	32.8	28.6	45.4	38.2	53.9	20.4
10000 nM	3.84	9.13	–	11.6	16	14.6	5.55	12	2.11

Conditions	drug sensitivity score
[10]	6.29
[11]	0
[12]	3.78
[13]	8.84
[14]	6.83
[15]	20.1
[16]	2.65
[17]	0
[18]	0
[19]	0
[20]	0
[21]	2.25
[22]	1.27
[23]	12.7
[24]	4.37
[25]	5.86
